From article PMC8909834, “An Orally Bioavailable and Highly Efficacious Inhibitor of CDK9/FLT3 for the Treatment of Acute Myeloid Leukemia” (Cancers, 2022)

Experiments:
Test in all cases: Kinase Hotspot radiolabel assay
Assay type in all cases: biochemical
Details in all cases: read-out: % Residual Activity
AKT1 = biological target: T1, AKT1 (Homo sapiens, UniProt P31749)
T1 construct: purchased Reaction Biology Corporation (Kinase HotSpot)
Outline: (§1)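 Hotspot radioactive kinase assay, compound fixed at 1 µM, broad 369-kinase selectivity screen.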

FER = biological target: T2, FER (Homo sapiens, UniProt P16591)
T2 construct: purchased Reaction Biology Corporation (Kinase HotSpot)
Outline: as §1

FLT4/VEGFR3 = biological target: T3, FLT4/VEGFR3 (Homo sapiens, UniProt P35916)
T3 construct: purchased Reaction Biology Corporation (Kinase HotSpot)
Outline: as §1

BRSK1 = biological target: T4, BRSK1 (Homo sapiens, UniProt Q8TDC3)
T4 construct: purchased Reaction Biology Corporation (Kinase HotSpot)
Outline: as §1

CDK2/cyclin E = biological target: T5, CDK2/cyclin E (Homo sapiens, UniProt P24941)
T5 construct: purchased Reaction Biology Corporation (Kinase HotSpot)
Outline: as §1

KHS/MAP4K5 = biological target: T6, KHS/MAP4K5 (Homo sapiens, UniProt Q9Y4K4)
T6 construct: purchased Reaction Biology Corporation (Kinase HotSpot)
Outline: as §1

CDK4/cyclin D3 = biological target: T7, CDK4/cyclin D3 (Homo sapiens, UniProt P11802)
T7 construct: purchased Reaction Biology Corporation (Kinase HotSpot)
T7 sequence (P11802 whole entry): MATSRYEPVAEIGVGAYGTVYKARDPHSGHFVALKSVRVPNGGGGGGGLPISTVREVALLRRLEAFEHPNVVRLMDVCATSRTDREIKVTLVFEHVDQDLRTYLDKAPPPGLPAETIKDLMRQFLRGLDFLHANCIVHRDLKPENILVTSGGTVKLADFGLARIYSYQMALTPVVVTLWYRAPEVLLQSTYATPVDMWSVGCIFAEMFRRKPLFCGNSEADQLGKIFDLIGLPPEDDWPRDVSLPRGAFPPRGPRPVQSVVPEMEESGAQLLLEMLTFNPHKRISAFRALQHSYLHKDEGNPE
T7 sequence (P30281 whole entry partner): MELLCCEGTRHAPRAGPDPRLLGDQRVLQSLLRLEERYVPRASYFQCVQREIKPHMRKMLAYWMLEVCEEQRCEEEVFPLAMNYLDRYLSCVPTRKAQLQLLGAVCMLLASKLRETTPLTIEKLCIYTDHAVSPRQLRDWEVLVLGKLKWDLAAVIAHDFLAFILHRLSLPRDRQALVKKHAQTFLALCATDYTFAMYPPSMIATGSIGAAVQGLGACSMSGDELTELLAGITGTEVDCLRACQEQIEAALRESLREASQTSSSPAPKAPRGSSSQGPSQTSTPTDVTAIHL
Outline: as §1

TYK2 = biological target: T8, TYK2 (Homo sapiens, UniProt P29597)
T8 construct: purchased Reaction Biology Corporation (Kinase HotSpot)
Outline: as §1

P38b/MAPK11 = biological target: T9, P38b/MAPK11 (Homo sapiens, UniProt Q15759)
T9 construct: purchased Reaction Biology Corporation (Kinase HotSpot)
Outline: as §1

JAK3 = biological target: T10, JAK3 (Homo sapiens, UniProt P52333)
T10 construct: purchased Reaction Biology Corporation (Kinase HotSpot)
Outline: as §1

TLK2 = biological target: T11, TLK2 (Homo sapiens, UniProt Q86UE8)
T11 construct: purchased Reaction Biology Corporation (Kinase HotSpot)
Outline: as §1

SNRK = biological target: T12, SNRK (Homo sapiens, UniProt Q9NRH2)
T12 construct: purchased Reaction Biology Corporation (Kinase HotSpot)
Outline: as §1

LRRK2 = biological target: T13, LRRK2 (Homo sapiens, UniProt Q5S007)
T13 construct: purchased Reaction Biology Corporation (Kinase HotSpot)
T13 sequence (Q5S007 whole entry): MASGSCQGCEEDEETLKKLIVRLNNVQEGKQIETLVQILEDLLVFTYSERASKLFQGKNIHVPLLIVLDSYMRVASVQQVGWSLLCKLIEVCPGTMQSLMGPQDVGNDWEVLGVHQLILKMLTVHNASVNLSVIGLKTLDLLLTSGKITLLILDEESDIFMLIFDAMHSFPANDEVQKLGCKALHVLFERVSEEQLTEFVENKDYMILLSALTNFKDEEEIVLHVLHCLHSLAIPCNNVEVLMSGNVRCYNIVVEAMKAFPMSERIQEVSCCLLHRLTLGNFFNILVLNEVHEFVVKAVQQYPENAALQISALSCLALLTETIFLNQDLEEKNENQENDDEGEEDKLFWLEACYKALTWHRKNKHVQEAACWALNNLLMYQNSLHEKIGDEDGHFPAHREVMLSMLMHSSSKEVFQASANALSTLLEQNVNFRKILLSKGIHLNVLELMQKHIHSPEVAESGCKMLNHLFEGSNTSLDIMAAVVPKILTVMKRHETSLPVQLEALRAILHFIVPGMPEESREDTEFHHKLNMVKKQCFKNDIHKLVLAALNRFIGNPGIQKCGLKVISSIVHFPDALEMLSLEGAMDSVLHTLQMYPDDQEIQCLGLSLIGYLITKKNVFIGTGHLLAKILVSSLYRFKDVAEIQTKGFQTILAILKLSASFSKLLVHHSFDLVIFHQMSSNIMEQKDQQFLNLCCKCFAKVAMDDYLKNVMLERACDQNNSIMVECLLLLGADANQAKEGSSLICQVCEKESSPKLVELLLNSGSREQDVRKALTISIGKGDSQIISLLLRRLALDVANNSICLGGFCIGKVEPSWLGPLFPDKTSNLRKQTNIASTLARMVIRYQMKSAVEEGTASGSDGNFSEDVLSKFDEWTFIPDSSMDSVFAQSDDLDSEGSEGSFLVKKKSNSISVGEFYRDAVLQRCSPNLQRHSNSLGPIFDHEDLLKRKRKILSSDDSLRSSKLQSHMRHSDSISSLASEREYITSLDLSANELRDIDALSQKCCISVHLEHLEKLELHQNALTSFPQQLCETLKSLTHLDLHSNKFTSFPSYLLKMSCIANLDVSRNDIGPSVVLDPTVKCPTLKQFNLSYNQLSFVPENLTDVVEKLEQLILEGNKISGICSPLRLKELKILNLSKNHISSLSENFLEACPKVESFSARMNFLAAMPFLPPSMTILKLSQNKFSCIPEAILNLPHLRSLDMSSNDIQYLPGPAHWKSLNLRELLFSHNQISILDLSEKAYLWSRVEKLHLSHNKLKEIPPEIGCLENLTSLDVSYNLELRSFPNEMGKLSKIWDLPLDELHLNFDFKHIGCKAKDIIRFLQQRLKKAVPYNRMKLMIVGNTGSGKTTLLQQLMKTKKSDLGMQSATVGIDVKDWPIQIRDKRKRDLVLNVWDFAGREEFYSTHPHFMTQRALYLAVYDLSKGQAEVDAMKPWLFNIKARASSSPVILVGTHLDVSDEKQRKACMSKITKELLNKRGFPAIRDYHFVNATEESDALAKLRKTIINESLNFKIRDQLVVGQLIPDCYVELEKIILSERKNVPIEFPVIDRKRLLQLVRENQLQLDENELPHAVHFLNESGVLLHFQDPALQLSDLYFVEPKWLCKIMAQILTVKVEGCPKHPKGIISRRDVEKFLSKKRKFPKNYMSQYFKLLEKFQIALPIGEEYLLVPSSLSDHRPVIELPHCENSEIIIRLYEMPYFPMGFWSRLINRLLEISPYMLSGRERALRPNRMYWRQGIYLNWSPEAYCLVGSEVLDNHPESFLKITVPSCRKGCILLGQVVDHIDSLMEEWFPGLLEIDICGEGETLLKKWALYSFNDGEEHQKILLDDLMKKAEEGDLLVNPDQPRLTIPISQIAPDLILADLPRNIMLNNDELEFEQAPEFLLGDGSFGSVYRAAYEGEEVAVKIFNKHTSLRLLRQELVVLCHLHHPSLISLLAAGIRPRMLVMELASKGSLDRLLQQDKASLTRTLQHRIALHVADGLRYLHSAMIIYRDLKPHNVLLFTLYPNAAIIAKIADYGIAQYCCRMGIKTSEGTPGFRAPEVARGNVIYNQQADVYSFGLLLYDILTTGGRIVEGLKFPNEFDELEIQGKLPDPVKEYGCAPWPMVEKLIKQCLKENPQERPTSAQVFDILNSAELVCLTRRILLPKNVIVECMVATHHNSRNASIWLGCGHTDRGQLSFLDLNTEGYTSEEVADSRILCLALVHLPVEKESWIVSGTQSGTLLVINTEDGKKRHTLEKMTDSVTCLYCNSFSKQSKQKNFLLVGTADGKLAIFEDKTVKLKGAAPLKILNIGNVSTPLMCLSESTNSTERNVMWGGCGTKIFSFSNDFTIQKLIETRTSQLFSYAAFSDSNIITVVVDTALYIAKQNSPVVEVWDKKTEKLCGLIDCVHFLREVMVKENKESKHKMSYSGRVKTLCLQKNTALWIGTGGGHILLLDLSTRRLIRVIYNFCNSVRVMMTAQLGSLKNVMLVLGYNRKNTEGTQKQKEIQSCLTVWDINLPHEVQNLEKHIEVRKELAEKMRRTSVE
Outline: as §1

BLK = biological target: T14, BLK (Homo sapiens, UniProt P51451)
T14 construct: purchased Reaction Biology Corporation (Kinase HotSpot)
Outline: as §1

CDK1/cyclin B = biological target: T15, CDK1/cyclin B (Homo sapiens, UniProt P06493)
T15 construct: purchased Reaction Biology Corporation (Kinase HotSpot)
Outline: as §1

YSK4/MAP3K19 = biological target: T16, YSK4/MAP3K19 (Homo sapiens, UniProt Q56UN5)
T16 construct: purchased Reaction Biology Corporation (Kinase HotSpot)
Outline: as §1

SYK = biological target: T17, SYK (Homo sapiens, UniProt P43405)
T17 construct: purchased Reaction Biology Corporation (Kinase HotSpot)
Outline: as §1

ARAF = biological target: T18, ARAF (Homo sapiens, UniProt P10398)
T18 construct: purchased Reaction Biology Corporation (Kinase HotSpot)
Outline: as §1

PHKg1 = biological target: T19, PHKg1 (Homo sapiens, UniProt Q16816)
T19 construct: purchased Reaction Biology Corporation (Kinase HotSpot)
Outline: as §1

ABL1 = biological target: T20, ABL1 (Homo sapiens, UniProt P00519)
T20 construct: purchased Reaction Biology Corporation (Kinase HotSpot)
Outline: as §1

Aurora B = biological target: T21, Aurora B (Homo sapiens, UniProt Q96GD4)
T21 construct: purchased Reaction Biology Corporation (Kinase HotSpot)
Outline: as §1

TTBK1 = biological target: T22, TTBK1 (Homo sapiens, UniProt Q5TCY1)
T22 construct: purchased Reaction Biology Corporation (Kinase HotSpot)
T22 sequence (Q5TCY1 whole entry): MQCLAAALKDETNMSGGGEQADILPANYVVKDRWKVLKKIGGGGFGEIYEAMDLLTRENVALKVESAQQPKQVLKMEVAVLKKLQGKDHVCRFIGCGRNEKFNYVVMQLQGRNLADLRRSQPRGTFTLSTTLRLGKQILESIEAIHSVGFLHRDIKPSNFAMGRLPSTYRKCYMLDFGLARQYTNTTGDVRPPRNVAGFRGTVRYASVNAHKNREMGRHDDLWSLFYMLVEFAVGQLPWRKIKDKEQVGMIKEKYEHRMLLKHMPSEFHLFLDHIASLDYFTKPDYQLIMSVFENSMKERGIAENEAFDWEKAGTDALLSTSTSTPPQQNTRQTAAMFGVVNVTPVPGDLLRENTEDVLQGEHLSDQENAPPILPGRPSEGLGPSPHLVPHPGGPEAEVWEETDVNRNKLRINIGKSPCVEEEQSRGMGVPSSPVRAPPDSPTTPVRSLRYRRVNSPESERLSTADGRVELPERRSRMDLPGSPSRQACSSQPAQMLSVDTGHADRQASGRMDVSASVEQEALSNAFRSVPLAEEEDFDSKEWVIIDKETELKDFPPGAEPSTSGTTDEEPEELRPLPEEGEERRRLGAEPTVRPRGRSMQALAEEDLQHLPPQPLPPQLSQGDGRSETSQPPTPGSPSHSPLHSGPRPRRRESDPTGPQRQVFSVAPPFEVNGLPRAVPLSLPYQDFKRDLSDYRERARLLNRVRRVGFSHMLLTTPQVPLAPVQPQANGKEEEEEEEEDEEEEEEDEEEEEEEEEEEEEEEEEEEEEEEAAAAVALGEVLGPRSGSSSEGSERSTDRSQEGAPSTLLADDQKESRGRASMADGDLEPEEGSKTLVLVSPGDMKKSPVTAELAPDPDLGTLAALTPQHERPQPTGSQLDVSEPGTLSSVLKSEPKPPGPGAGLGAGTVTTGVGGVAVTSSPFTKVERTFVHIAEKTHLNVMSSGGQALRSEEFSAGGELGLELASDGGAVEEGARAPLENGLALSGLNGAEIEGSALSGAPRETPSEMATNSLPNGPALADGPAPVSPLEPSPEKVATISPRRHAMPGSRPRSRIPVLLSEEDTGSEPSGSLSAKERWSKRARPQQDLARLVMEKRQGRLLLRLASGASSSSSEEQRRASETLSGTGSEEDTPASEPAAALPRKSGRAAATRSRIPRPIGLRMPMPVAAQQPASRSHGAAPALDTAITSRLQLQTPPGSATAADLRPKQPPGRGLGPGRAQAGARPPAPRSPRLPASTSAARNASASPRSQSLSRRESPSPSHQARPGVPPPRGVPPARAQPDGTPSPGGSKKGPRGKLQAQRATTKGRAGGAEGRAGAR
Outline: as §1

PKCa = biological target: T23, PKCa (Homo sapiens, UniProt P17252)
T23 construct: purchased Reaction Biology Corporation (Kinase HotSpot)
Outline: as §1

HIPK1 = biological target: T24, HIPK1 (Homo sapiens, UniProt Q86Z02)
T24 construct: purchased Reaction Biology Corporation (Kinase HotSpot)
Outline: as §1

EPHB2 = biological target: T25, EPHB2 (Homo sapiens, UniProt P29323)
T25 construct: purchased Reaction Biology Corporation (Kinase HotSpot)
Outline: as §1

GSK3b = biological target: T26, GSK3b (Homo sapiens, UniProt P49841)
T26 construct: purchased Reaction Biology Corporation (Kinase HotSpot)
Outline: as §1

SBK1 = biological target: T27, SBK1 (Homo sapiens, UniProt Q52WX2)
T27 construct: purchased Reaction Biology Corporation (Kinase HotSpot)
T27 sequence (Q52WX2 whole entry): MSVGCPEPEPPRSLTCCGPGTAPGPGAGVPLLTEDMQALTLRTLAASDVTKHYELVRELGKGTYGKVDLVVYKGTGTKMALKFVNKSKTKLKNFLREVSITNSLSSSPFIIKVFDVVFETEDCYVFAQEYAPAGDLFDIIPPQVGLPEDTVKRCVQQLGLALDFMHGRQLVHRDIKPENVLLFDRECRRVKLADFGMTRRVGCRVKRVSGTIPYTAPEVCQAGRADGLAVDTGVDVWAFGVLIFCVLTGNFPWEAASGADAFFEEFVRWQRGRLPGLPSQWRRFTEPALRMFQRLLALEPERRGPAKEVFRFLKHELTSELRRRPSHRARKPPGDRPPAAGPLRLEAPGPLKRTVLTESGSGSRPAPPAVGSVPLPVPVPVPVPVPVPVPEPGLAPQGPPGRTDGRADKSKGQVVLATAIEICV
Outline: as §1

FAK/PTK2 = biological target: T28, FAK/PTK2 (Homo sapiens, UniProt Q05397)
T28 construct: purchased Reaction Biology Corporation (Kinase HotSpot)
Outline: as §1

PKA = biological target: T29, PKA (Homo sapiens, UniProt P17612)
T29 construct: purchased Reaction Biology Corporation (Kinase HotSpot)
Outline: as §1

P38a/MAPK14 = biological target: T30, P38a/MAPK14 (Homo sapiens, UniProt Q16539)
T30 construct: purchased Reaction Biology Corporation (Kinase HotSpot)
Outline: as §1

## Cc1cnc(N[C@H]2CC[C@H](N)CC2)nc1-c1cnc2ccc(-c3ccccc3)cn12 [CDDD11-8]
AKT1
  remaining activity at 1 µM: 95%
FER
  remaining activity at 1 µM: 70%
FLT4/VEGFR3
  remaining activity at 1 µM: 23.3%
BRSK1
  remaining activity at 1 µM: 97.4%
CDK2/cyclin E
  remaining activity at 1 µM: 55.6%
KHS/MAP4K5
  remaining activity at 1 µM: 20.3%
CDK4/cyclin D3
  remaining activity at 1 µM: 79.7%
TYK2
  remaining activity at 1 µM: 93.2%
P38b/MAPK11
  remaining activity at 1 µM: 98.4%
JAK3
  remaining activity at 1 µM: 48.5%
TLK2
  remaining activity at 1 µM: 97.8%
SNRK
  remaining activity at 1 µM: 100%
LRRK2
  remaining activity at 1 µM: 70.6%
BLK
  remaining activity at 1 µM: 47.2%
CDK1/cyclin B
  remaining activity at 1 µM: 69.5%
YSK4/MAP3K19
  remaining activity at 1 µM: 63.5%
SYK
  remaining activity at 1 µM: 13.4%
ARAF
  remaining activity at 1 µM: 91.5%
PHKg1
  remaining activity at 1 µM: 59.2%
ABL1
  remaining activity at 1 µM: 76.8%
Aurora B
  remaining activity at 1 µM: 89.6%
TTBK1
  remaining activity at 1 µM: 89.5%
PKCa
  remaining activity at 1 µM: 76%
HIPK1
  remaining activity at 1 µM: 105%
EPHB2
  remaining activity at 1 µM: 80.2%
GSK3b
  remaining activity at 1 µM: 94.5%
SBK1
  remaining activity at 1 µM: 102%
FAK/PTK2
  remaining activity at 1 µM: 63.3%
PKA
  remaining activity at 1 µM: 95.3%
P38a/MAPK14
  remaining activity at 1 µM: 106%
